Legend:
[1] = biological target: human CB2 cannabinoid receptor (Homo sapiens, UniProt P34972); assay: [3H]CP55,940 radioligand competition binding, human CB2
[2] = biological target: rat CB1 cannabinoid receptor (Rattus norvegicus, UniProt P20272); assay: [3H]CP55,940 radioligand competition binding, rat CB1; details: removal of the methyl moiety from the N-methylpiperazine analogue
[3] = biological target: T1, human CB2 receptors (Homo sapiens, UniProt P34972); assay: Effect on CP55,940-induced CB2 internalization in hCB2 cells; assay type: cell-based; details: 10 nM CP55,940 cotreated with 3 uM compound
[4] = test system: L5 and L6 spinal nerve ligation neuropathic pain model in rats; assay: Spinal nerve ligation neuropathic pain model, von Frey paw withdrawal threshold; assay type: in vivo, rat; details: intraperitoneally 5 – 20 mg/kg
[5] = biological target: T1, human CB2 receptors; assay: hCB2 receptor internalization; assay type: cell-based; details: at 10 μM as printed in text

T1 sequence (P34972 whole entry): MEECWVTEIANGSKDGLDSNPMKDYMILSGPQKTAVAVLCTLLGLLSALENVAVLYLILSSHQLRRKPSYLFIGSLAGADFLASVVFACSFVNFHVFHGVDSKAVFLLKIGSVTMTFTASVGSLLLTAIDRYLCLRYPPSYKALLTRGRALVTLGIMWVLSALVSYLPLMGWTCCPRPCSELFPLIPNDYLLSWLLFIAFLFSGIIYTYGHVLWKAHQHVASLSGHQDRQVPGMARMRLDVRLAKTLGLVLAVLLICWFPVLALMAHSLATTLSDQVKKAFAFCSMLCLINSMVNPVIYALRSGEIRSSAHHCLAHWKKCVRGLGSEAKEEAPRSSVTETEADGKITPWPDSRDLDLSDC
Sequence of human CB2 cannabinoid receptor (P34972 whole entry): as above
Sequence of rat CB1 cannabinoid receptor (P20272 whole entry): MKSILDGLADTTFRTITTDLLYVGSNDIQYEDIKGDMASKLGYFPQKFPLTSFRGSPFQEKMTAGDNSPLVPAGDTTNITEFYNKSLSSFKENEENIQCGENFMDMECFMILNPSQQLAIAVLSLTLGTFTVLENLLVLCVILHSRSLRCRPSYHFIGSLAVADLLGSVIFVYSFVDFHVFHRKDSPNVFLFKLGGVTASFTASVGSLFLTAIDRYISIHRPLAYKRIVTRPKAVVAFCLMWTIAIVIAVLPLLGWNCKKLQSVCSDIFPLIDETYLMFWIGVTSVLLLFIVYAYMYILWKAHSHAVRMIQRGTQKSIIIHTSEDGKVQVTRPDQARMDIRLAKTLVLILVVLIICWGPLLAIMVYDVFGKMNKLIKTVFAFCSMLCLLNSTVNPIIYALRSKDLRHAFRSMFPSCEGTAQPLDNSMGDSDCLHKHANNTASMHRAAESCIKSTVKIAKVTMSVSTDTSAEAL

## CCCCCn1c2ccccc2c2cc(C(=O)N3CCN(C)CC3)ccc21 [Compound 9, (4-Methylpiperazin-1-yl)(9-pentyl-9H-carbazol-3-yl)methanone]
[1]; compared to the piperidine analogue 4
  Improvement of CB2 selectivity: 3 fold

## CCCCCn1c2ccccc2c2cc(C(=O)N3CCNCC3)ccc21 [Compound 15, (9-Pentyl-9H-carbazol-3-yl)(piperazin-1-yl)methanone]
[2]
  Decrease of CB1 affinity: 4 fold

## CCCCCn1c2ccccc2c2cc(C(=O)c3ccccc3)ccc21 [Compound 18, (9-Pentyl-9H-carbazol-3-yl)(phenyl)methanone]
[3]
  Reduction of hCB2 internalization induced by CP55,940: more than 50%

## CCCCCn1c2ccccc2c2cc(C(=O)NCC(C)(C)C)ncc21 [Compound 35, N-(2,2-dimethylpropyl)-9-pentyl-9H-pyrido[3,4-b]indole-3-carboxamide]
[3]
  Reduction of hCB2 internalization induced by CP55,940: more than 50%

## CS(=O)(=O)NCCCn1c2ccccc2c2cc(C(=O)N3CCCCC3)ccc21 [Compound 64, N-(3-(3-(Piperidine-1-carbonyl)-9H-carbazol-9-yl)propyl)methanesulfonamide]
[4]
  Tactile allodynia (paw withdrawal threshold, von Frey filaments): significantly attenuated tactile allodynia in a dose-dependent manner

## O=C(c1ccc2c(c1)c1ccccc1n2Cc1ccncc1)N1CCCCC1 [Compound 74, Piperidin-1-yl(9-(pyridin-4-ylmethyl)-9H-carbazol-3-yl)methanone]
[1]; 4-methylpyridine replacing the 4-methyltetrahydropyran fragment (vs 69)
  Improvement in CB2 selectivity: 4 fold

## CCCCCn1c2ccc(C(=O)N3CCCCC3)cc2c2ccc(OC)cc21 [Compound 81, (7-Methoxy-9-pentyl-9H-carbazol-3-yl)(piperidin-1-yl)methanone]
[5]
  CB2 internalization: failed to internalize CB2
[3]
  Reduction of hCB2 internalization induced by CP55,940: reduced compound CP55,940-induced internalization
